This note sets out measurements from patent publication US8435980B2 (AbbVie Inc., priority 2009, dated 2013).

In the experiment the target is T1, Cdc7 (BEV coexpressed huCDC7/DBF4) (Homo sapiens, UniProt O00311).
T1 construct: made in house; host or cells: BEV (baculovirus expression vector) co-expression; insect cells are implied but no cell line is named
T1 sequence (O00311 whole entry): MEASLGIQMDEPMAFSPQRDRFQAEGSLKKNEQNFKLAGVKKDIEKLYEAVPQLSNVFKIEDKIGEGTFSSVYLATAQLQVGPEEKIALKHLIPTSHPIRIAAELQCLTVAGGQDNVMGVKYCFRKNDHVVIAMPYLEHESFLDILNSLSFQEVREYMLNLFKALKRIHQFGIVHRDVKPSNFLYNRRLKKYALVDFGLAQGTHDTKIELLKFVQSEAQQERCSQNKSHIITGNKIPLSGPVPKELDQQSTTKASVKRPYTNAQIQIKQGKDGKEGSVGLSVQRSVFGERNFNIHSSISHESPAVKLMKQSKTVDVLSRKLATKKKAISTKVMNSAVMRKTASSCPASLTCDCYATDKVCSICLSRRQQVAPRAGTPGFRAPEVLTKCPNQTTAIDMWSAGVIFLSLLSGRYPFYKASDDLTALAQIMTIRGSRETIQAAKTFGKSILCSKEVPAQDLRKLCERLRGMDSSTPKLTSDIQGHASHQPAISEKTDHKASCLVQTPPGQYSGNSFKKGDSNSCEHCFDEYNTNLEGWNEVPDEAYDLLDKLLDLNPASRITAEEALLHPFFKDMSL
T1 sequence (Q9UBU7 whole entry partner): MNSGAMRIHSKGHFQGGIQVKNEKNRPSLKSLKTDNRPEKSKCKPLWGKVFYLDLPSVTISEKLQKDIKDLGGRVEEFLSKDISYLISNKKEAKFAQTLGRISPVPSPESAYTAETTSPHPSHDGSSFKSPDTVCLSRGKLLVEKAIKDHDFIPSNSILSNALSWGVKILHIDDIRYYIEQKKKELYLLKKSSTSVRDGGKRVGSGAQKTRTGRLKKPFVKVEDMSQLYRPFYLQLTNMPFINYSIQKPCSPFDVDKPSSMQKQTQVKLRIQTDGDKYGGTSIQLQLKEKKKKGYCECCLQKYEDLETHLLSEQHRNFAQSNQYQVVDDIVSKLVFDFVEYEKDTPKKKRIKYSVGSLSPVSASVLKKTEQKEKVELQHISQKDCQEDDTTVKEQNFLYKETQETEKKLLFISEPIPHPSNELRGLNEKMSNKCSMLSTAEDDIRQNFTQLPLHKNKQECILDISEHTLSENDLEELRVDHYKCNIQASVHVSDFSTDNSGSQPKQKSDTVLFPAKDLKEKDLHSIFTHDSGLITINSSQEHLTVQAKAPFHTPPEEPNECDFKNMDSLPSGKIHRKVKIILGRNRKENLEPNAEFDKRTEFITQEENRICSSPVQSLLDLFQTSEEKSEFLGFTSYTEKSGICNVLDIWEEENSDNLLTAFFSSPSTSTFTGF
The experiment is described as follows: Cdc7 enzyme inhibition assay ([33P]ATP, biotinylated peptide substrate, FlashPlate). It is filed as biochemical. To be noted: Table 3; enzyme inhibition data (Ki). The method, then:
Cdc7 (BEV coexpressed huCDC7/DBF4) is prepared internally. Cdc7 assays are conducted as follows with final concentrations as listed. […] Reactions are quenched after 1 hr by the addition of 90 μL stop buffer (50 mM EDTA, 2M NaCl). […] (Ki) for exemplary compounds.
On to `Clc1cc(-c2c[nH]c3ncccc23)cc(NC2CCN(Cc3ccccc3)CC2)n1` [Example 402, N-(1-benzylpiperidin-4-yl)-6-chloro-4-(1H-pyrrolo[2,3-b]pyridin-3-yl)pyridin-2-amine], for which the inhibition constant (Ki) was less than 10 nM.

Molecule `Clc1cc(-c2c[nH]c3ncccc23)cc(NCCc2ccncc2)n1` [Example 403, 6-chloro-N-[2-(pyridin-4-yl)ethyl]-4-(1H-pyrrolo[2,3-b]pyridin-3-yl)pyridin-2-amine] gave an inhibitory constant (Ki) of less than 10 nM.

Consider `Clc1cc(-c2c[nH]c3ncccc23)cc(NC2Cc3ccccc3C2)n1` [Example 404, 6-chloro-N-(2,3-dihydro-1H-inden-2-yl)-4-(1H-pyrrolo[2,3-b]pyridin-3-yl)pyridin-2-amine], for which the inhibitory constant (Ki) was less than 10 nM.

Molecule `Clc1cc(-c2c[nH]c3ncccc23)cc(NCCc2c[nH]c3ccccc23)n1` [Example 405, 6-chloro-N-[2-(1H-indol-3-yl)ethyl]-4-(1H-pyrrolo[2,3-b]pyridin-3-yl)pyridin-2-amine] yielded a Ki of less than 10 nM.

In turn, `Cc1cccc(CN2CC(C(=O)N[C@H]3CC[C@H](Nc4cc(-c5c[nH]c6ncccc56)cc(Cl)n4)CC3)C2)c1C` [Example 406, N-(trans-4-{[6-chloro-4-(1H-pyrrolo[2,3-b]pyridin-3-yl)pyridin-2-yl]amino}cyclohexyl)-1-(2,3-dimethylbenzyl)azetidine-3-carboxamide] returned a Ki of less than 10 nM.

For the molecule `O=C(N[C@H]1CC[C@H](Nc2cc(-c3c[nH]c4ncccc34)cc(Cl)n2)CC1)C1CN(Cc2ccc3cc[nH]c3c2)C1` [Example 407, N-(trans-4-{[6-chloro-4-(1H-pyrrolo[2,3-b]pyridin-3-yl)pyridin-2-yl]amino}cyclohexyl)-1-(1H-indol-6-ylmethyl)azetidine-3-carboxamide], the inhibition constant Ki was less than 10 nM.

`Clc1cc(-c2c[nH]c3ncccc23)cc(Nc2ccc(OCc3ccccc3)cc2)n1` [Example 408, N-[4-(benzyloxy)phenyl]-6-chloro-4-(1H-pyrrolo[2,3-b]pyridin-3-yl)pyridin-2-amine] displayed a Ki of less than 10 nM.

With `Clc1cc(-c2c[nH]c3ncccc23)cc(NCc2nc3ccccc3[nH]2)n1` [Example 409, N-(1H-benzimidazol-2-ylmethyl)-6-chloro-4-(1H-pyrrolo[2,3-b]pyridin-3-yl)pyridin-2-amine], the inhibitory constant (Ki) is less than 10 nM.

Regarding `Clc1cc(-c2c[nH]c3ncccc23)cc(NCc2ccc3[nH]ccc3c2)n1` [Example 410, 6-chloro-N-(1H-indol-5-ylmethyl)-4-(1H-pyrrolo[2,3-b]pyridin-3-yl)pyridin-2-amine], the inhibition constant Ki was less than 10 nM.

With `COc1ccc(Nc2cc(-c3c[nH]c4ncccc34)cc(Cl)n2)cc1` [Example 411, 6-chloro-N-(4-methoxyphenyl)-4-(1H-pyrrolo[2,3-b]pyridin-3-yl)pyridin-2-amine], the Ki was less than 10 nM.

`COc1cc(Nc2cc(-c3c[nH]c4ncccc34)cc(Cl)n2)cc(OC)c1OC` [Example 412, 6-chloro-4-(1H-pyrrolo[2,3-b]pyridin-3-yl)-N-(3,4,5-trimethoxyphenyl)pyridin-2-amine] gave an inhibition constant (Ki) of less than 10 nM.

As for `Clc1cc(-c2c[nH]c3ncccc23)cc(Nc2ccc(-n3ccnc3)cc2)n1` [Example 413, 6-chloro-N-[4-(1H-imidazol-1-yl)phenyl]-4-(1H-pyrrolo[2,3-b]pyridin-3-yl)pyridin-2-amine], the Ki is less than 10 nM.

`COc1ccc(CNc2cc(-c3c[nH]c4ncccc34)cc(Cl)n2)cc1OC` [Example 414] registered a Ki of less than 10 nM.

In turn, `OC(CNc1cc(-c2c[nH]c3ncccc23)cc(Cl)n1)c1ccccc1` (stereo not shown) [Example 415, 2-{[6-chloro-4-(1H-pyrrolo[2,3-b]pyridin-3-yl)pyridin-2-yl]amino}-1-phenylethanol] showed a Ki of less than 10 nM.

`Clc1cc(-c2c[nH]c3ncccc23)cc(NCCCc2ccccc2)n1` [Example 416, 6-chloro-N-(3-phenylpropyl)-4-(1H-pyrrolo[2,3-b]pyridin-3-yl)pyridin-2-amine] registered a Ki of less than 10 nM.

As to `CS(=O)(=O)c1ccc(CNc2cc(-c3c[nH]c4ncccc34)cc(Cl)n2)cc1` [Example 417, 6-chloro-N-[4-(methylsulfonyl)benzyl]-4-(1H-pyrrolo[2,3-b]pyridin-3-yl)pyridin-2-amine], the Ki is less than 10 nM.

For the molecule `CSc1ccc(Nc2cc(-c3c[nH]c4ncccc34)cc(Cl)n2)cc1` [Example 418, 6-chloro-N-[4-(methylsulfanyl)phenyl]-4-(1H-pyrrolo[2,3-b]pyridin-3-yl)pyridin-2-amine], the inhibition constant Ki was less than 10 nM.

With `Clc1cc(-c2c[nH]c3ncccc23)cc(Nc2ccc(Oc3ccccc3)cc2)n1` [Example 419, 6-chloro-N-(4-phenoxyphenyl)-4-(1H-pyrrolo[2,3-b]pyridin-3-yl)pyridin-2-amine], the Ki is less than 10 nM.

As for `Clc1cc(-c2c[nH]c3ncccc23)cc(Nc2ccc(N3CCCCC3)cc2)n1` [Example 420, 6-chloro-N-[4-(piperidin-1-yl)phenyl]-4-(1H-pyrrolo[2,3-b]pyridin-3-yl)pyridin-2-amine], the inhibition constant Ki was less than 10 nM.

The molecule `COC(=O)c1cnc2[nH]cc(-c3cc(Cl)nc(NC4CCCCC4)c3)c2c1` [Example 421, methyl 3-[2-chloro-6-(cyclohexylamino)pyridin-4-yl]-1H-pyrrolo[2,3-b]pyridine-5-carboxylate] gave an inhibitory constant (Ki) of less than 10 nM.

Consider `O=C(CN1CCN(CCO)CC1)N[C@H]1CC[C@H](Nc2cc(-c3c[nH]c4ncccc34)cc(Cl)n2)CC1` [Example 422, N-(trans-4-{[6-chloro-4-(1H-pyrrolo[2,3-b]pyridin-3-yl)pyridin-2-yl]amino}cyclohexyl)-2-[4-(2-hydroxyethyl)piperazin-1-yl]acetamide], for which the inhibition constant Ki is less than 10 nM.

For the molecule `Cc1cccc(C)c1N1CCN(CC(=O)N[C@H]2CC[C@H](Nc3cc(-c4c[nH]c5ncccc45)cc(Cl)n3)CC2)CC1` [Example 423, N-(trans-4-{[6-chloro-4-(1H-pyrrolo[2,3-b]pyridin-3-yl)pyridin-2-yl]amino}cyclohexyl)-2-[4-(2,6-dimethylphenyl)piperazin-1-yl]acetamide], the Ki is less than 10 nM.

In the case of `COc1cnc2[nH]cc(-c3cc(Cl)nc(NC4CCC(CC5CCC(NC6CCC6)CC5)CC4)c3)c2c1` (stereo not shown) [Example 424, 6-chloro-N-(4-{[4-(cyclobutylamino)cyclohexyl]methyl}cyclohexyl)-4-(5-methoxy-1H-pyrrolo[2,3-b]pyridin-3-yl)pyridin-2-amine], the Ki was less than 10 nM.

The molecule `CCC(CC)NC1CCC(CC2CCC(Nc3cc(-c4c[nH]c5ncc(OC)cc45)cc(Cl)n3)CC2)CC1` (stereo not shown) [Example 425, 6-chloro-4-(5-methoxy-1H-pyrrolo[2,3-b]pyridin-3-yl)-N-(4-{[4-(pentan-3-ylamino)cyclohexyl]methyl}cyclohexyl)pyridin-2-amine] had a Ki of less than 10 nM.

Turning to `COc1cnc2[nH]cc(-c3cc(Cl)nc(NC4CCC(CC5CCC(NCC6CCCC6)CC5)CC4)c3)c2c1` (stereo not shown) [Example 426, 6-chloro-N-[4-({4-[(cyclopentylmethyl)amino]cyclohexyl}methyl)cyclohexyl]-4-(5-methoxy-1H-pyrrolo[2,3-b]pyridin-3-yl)pyridin-2-amine], the Ki is less than 10 nM.

The molecule `N[C@H]1CC[C@H](Nc2cc(-c3c[nH]c4ncc(OCCc5ccccn5)cc34)cc(Cl)n2)CC1` [Example 427, trans-N-(6-chloro-4-{5-[2-(pyridin-2-yl)ethoxy]-1H-pyrrolo[2,3-b]pyridin-3-yl}pyridin-2-yl)cyclohexane-1,4-diamine] showed a Ki of less than 10 nM.

`CC(C)COc1cnc2[nH]cc(-c3cc(Cl)nc(N[C@H]4CC[C@H](N)CC4)c3)c2c1` [Example 428, trans-N-{6-chloro-4-[5-(2-methylpropoxy)-1H-pyrrolo[2,3-b]pyridin-3-yl]pyridin-2-yl}cyclohexane-1,4-diamine]: the Ki is less than 10 nM.

For `O=C(N[C@H]1CC[C@H](Nc2cc(-c3c[nH]c4ncccc34)cc(Cl)n2)CC1)C1CN(Cc2ccccn2)C1` [Example 429, N-(trans-4-{[6-chloro-4-(1H-pyrrolo[2,3-b]pyridin-3-yl)pyridin-2-yl]amino}cyclohexyl)-1-(pyridin-2-ylmethyl)azetidine-3-carboxamide], the Ki was less than 10 nM.

Take `COc1cnc2[nH]cc(-c3cc(Cl)nc(N[C@H]4CC[C@H](NC(=O)C(F)(F)F)CC4)c3)c2c1` [Example 430, N-(trans-4-{[6-chloro-4-(5-methoxy-1H-pyrrolo[2,3-b]pyridin-3-yl)pyridin-2-yl]amino}cyclohexyl)-2,2,2-trifluoroacetamide]: the inhibitory constant (Ki) was less than 10 nM.

With `COc1ccc(-c2cnc3[nH]cc(-c4cc(Cl)nc(NC5CCCCC5)c4)c3c2)cn1` [Example 431, 6-chloro-N-cyclohexyl-4-[5-(6-methoxypyridin-3-yl)-1H-pyrrolo[2,3-b]pyridin-3-yl]pyridin-2-amine], the Ki is less than 10 nM.

Molecule `CCN(CCO)CC(=O)N[C@H]1CC[C@H](Nc2cc(-c3c[nH]c4ncc(OC)cc34)cc(Cl)n2)CC1` [Example 432, N-(trans-4-{[6-chloro-4-(5-methoxy-1H-pyrrolo[2,3-b]pyridin-3-yl)pyridin-2-yl]amino}cyclohexyl)-N~2~-ethyl-N~2~-(2-hydroxyethyl)glycinamide] gave an inhibitory constant (Ki) of less than 10 nM.

As to `COc1cnc2[nH]cc(-c3cc(Cl)nc(N[C@H]4CC[C@H](NC(=O)CNCCO)CC4)c3)c2c1` [Example 433, N-(trans-4-{[6-chloro-4-(5-methoxy-1H-pyrrolo[2,3-b]pyridin-3-yl)pyridin-2-yl]amino}cyclohexyl)-N~2~-(2-hydroxyethyl)glycinamide], the Ki was less than 10 nM.

`CN(C)c1ccc(Nc2cc(-c3c[nH]c4ncccc34)cc(Cl)n2)cc1` [Example 434, N′-[6-chloro-4-(1H-pyrrolo[2,3-b]pyridin-3-yl)pyridin-2-yl]-N,N-dimethylbenzene-1,4-diamine] returned a Ki of less than 10 nM.

In turn, `Clc1cc(-c2c[nH]c3ncccc23)cc(Nc2ccc3c(c2)CCC3)n1` [Example 435, 6-chloro-N-(2,3-dihydro-1H-inden-5-yl)-4-(1H-pyrrolo[2,3-b]pyridin-3-yl)pyridin-2-amine] yielded an inhibition constant (Ki) of less than 10 nM.
